In paper PMC11443518, “Undescribed Amaryllidaceae Alkaloids from Zephyranthes citrina and Their Cytotoxicity” (Journal of Natural Products, 2024):
pIC50: −log10 of the molar value. Values joined by “and” are separate entries in the source; they are usually repeats but may differ in a detail not shown here. Equal values may be shown once. Read-outs that look alike come from different tables or passages of the source.

Assays:
hAChE = molecular target: T1, hAChE (Homo sapiens, UniProt P22303); experiment: biochemical; assay type: biochemical; conditions: recombinant AChE, Ellman, 37 °C
T1 construct: purchased University Hradec Kralove, Department of Chemistry, Faculty of Science
Protocol: (§1) The hAChE and hBChE activities were determined using a modified method of Ellman, as described by Hrabinova and co-workers against recombinant AChE and recombinant BChE (purchased from University Hradec Kralove, Department of Chemistry, Faculty of Science).[43] Other used chemicals were phosphate buffer solution (PBS, pH = 7.4), 5,5′-dithio-bis(2-nitrobenzoic) acid (Ellman’s reagent, DTNB), acetylthiocholine iodide (ATChI), butyrylthiocholine iodide (BTChI), and dimethyl sulfoxide (DMSO) (all chemicals were purchased from Sigma-Aldrich, Prague, Czech Republic).
(§2) Briefly, 8.3 μL of the corresponding enzyme, 283 μL of 5 mM DTNB, and 8.3 μL of the sample dilution in DMSO in different concentrations were added to the microplate. These solutions were incubated for 5 min at 37 °C. Then, 33.3 μL of 10 mM substrate (ATChI or BTChI) was added to initiate the reaction, and the whole reaction mixture was incubated for 2 min at 37 °C. […] This difference after 1 min was used to calculate the percentage of inhibitory potential of the given derivative. Each measurement was repeated three times for every concentration of the compound. 8.3 μL DMSO was used as a blank. The % inhibition was calculated according to the following formula: [drawing 3] where ΔABl is the increase of absorbance of the blank sample and ΔASa is the increase of absorbance of the measured sample.

hBChE = molecular target: T2, hBChE (Homo sapiens, UniProt P06276); experiment: biochemical; assay type: biochemical; conditions: recombinant BChE, Ellman, 37 °C
T2 construct: purchased University Hradec Kralove, Department of Chemistry, Faculty of Science
Protocol: as §1, §2

[1] = system: HeLa (cervix adenocarcinoma); experiment: WST-1 cell proliferation assay, cytotoxicity screening; assay type: cell-based; conditions: Homo sapiens, 48 h, read-out: growth percent (GP) HeLa
Excerpt: (§3) Selected human tumor and nontumor cell lines Jurkat (acute T-cell leukemia), MOLT-4 (acute lymphoblastic leukemia), A549 (lung carcinoma), HT-29 (colorectal adenocarcinoma), PANC-1 (pancreas epithelioid carcinoma), A2780 (ovarian carcinoma), HeLa (cervix adenocarcinoma), MCF-7 (breast adenocarcinoma), SAOS-2 (osteosarcoma) and MRC-5 (nontumor lung fibroblasts) were purchased from European Collection of Authenticated Cell Cultures (ECACC, Salisbury, UK) and cultured according to the provider’s culture method guidelines. […] The cells in low passage number (nontumor primary cell line MRC-5 was used for a maximum of 10 passages and cancer cell lines were used for a maximum of 20 passages) and in an exponential growth phase were used for this study.
(§4) Each cell line was seeded at a previously established optimal density (1 × 10^3 to 50 × 10^3 cells per well) in a 96-well plate (TPP, Trasadingen, Switzerland) and cells were allowed to settle overnight. During screening tests for cytotoxicity, cells were treated with alkaloids at a final concentration of 10 μM for 48 h. Doxorubicin (Sigma-Aldrich, St. Louis, USA), at a concentration of 1 μM, was used as a positive control. At the end of the culture period, the WST-1 proliferation assay (Roche, Basel, Switzerland) was performed according to the manufacturer’s protocol. The absorbance was determined using a Tecan Spark microplate reader (Tecan, Männedorf, Switzerland). Each value is the mean of three independent experiments and represents the percentage of the proliferation of control, nontreated cells (100%). The growth percent (GP) value as the mean of the proliferation decrease was calculated for each cell line and derivative tested.

[2] = system: A2780 (ovarian carcinoma); experiment: as above; assay type: cell-based; conditions: Homo sapiens, read-out: growth percent (GP) A2780
Excerpt: as §3, §4

A549 (lung carcinoma) = experiment: as above; assay type: cell-based; conditions: Homo sapiens, read-out: growth percent (GP) A549
Excerpt: as §3, §4

[3] = system: HT-29 (colorectal adenocarcinoma); experiment: as above; assay type: cell-based; conditions: Homo sapiens, read-out: growth percent (GP) HT-29
Excerpt: as §3, §4

[4] = system: PANC-1 (pancreas epithelioid carcinoma); experiment: as above; assay type: cell-based; conditions: Homo sapiens, read-out: growth percent (GP) PANC-1
Excerpt: as §3, §4

[5] = system: Jurkat (acute T-cell leukemia); experiment: as above; assay type: cell-based; conditions: Homo sapiens, 48 h, read-out: growth percent (GP) Jurkat
Excerpt: as §3, §4

SAOS-2 (osteosarcoma) = experiment: as above; assay type: cell-based; conditions: Homo sapiens, read-out: growth percent (GP) SAOS-2
Excerpt: as §3, §4

[6] = system: MRC-5 (nontumor lung fibroblasts); experiment: as above; assay type: cell-based; conditions: Homo sapiens, read-out: growth percent (GP) MRC-5
Excerpt: as §3, §4

[7] = system: MOLT-4 (acute lymphoblastic leukemia); experiment: as above; assay type: cell-based, human; conditions: Homo sapiens, read-out: growth percent (GP) MOLT-4
Excerpt: as §3, §4

[8] = system: MCF-7 (breast adenocarcinoma); experiment: as above; assay type: cell-based, human; conditions: Homo sapiens, read-out: growth percent (GP) MCF-7
Excerpt: as §3, §4

[9] = system: nine human tumor and one nontumor cell lines; experiment: Cytotoxicity screening across the whole panel of cell lines; assay type: cell-based; conditions: Homo sapiens, read-out: GP value across the tested cell lines
Excerpt: Concerning the cytotoxicity of alkaloids isolated from Z. citrina, initially, Prakash and Vedanayaki investigated the MeOH extract of the bulbs for its in vitro cytotoxic activity using the MTT assay against three human cancer cell lines from different tissue origins: cervical cancer (HeLa), breast cancer (MCF-7), and oral squamous carcinoma (SCC-9). […] In this context, and to assess potential negative effects on human cell cultures, compounds 1, and 3–27 were screened in our study for cytotoxicity using a 10 μM single-dose regimen. The results were compared with those using the clinically approved antineoplastic agent doxorubicin at 1 μM. The effect on cell growth was investigated on nine human tumor and one nontumor cell lines, namely Jurkat (acute T-cell leukemia), MOLT-4 (acute lymphoblastic leukemia), A549 (lung carcinoma), HT-29 (colorectal adenocarcinoma), PANC-1 (pancreas epithelioid carcinoma), A2780 (ovarian carcinoma), HeLa (cervix adenocarcinoma), MCF-7 (breast adenocarcinoma), SAOS-2 (osteosarcoma) and MRC-5 (nontumor lung fibroblasts). […] No toxicity is valuable information, especially for compound 18, as it is a potent inhibitor of hAChE and hBChE.[27]
Selected human tumor and nontumor cell lines Jurkat (acute T-cell leukemia), MOLT-4 (acute lymphoblastic leukemia), A549 (lung carcinoma), HT-29 (colorectal adenocarcinoma), PANC-1 (pancreas epithelioid carcinoma), A2780 (ovarian carcinoma), HeLa (cervix adenocarcinoma), MCF-7 (breast adenocarcinoma), SAOS-2 (osteosarcoma) and MRC-5 (nontumor lung fibroblasts) were purchased from European Collection of Authenticated Cell Cultures (ECACC, Salisbury, UK) and cultured according to the provider’s culture method guidelines. All cell lines were maintained at 37 °C in a humidified 5% carbon dioxide and 95% air incubator. The cells in low passage number (nontumor primary cell line MRC-5 was used for a maximum of 10 passages and cancer cell lines were used for a maximum of 20 passages) and in an exponential growth phase were used for this study.
as §4

[10] = c = 10 μM, % of proliferation of nontreated control
[11] = A2780, c = 10 μM, 48 h, % of proliferation of nontreated control
[12] = A549, c = 10 μM, 48 h, % of proliferation of nontreated control
[13] = HT-29, c = 10 μM, 48 h, % of proliferation of nontreated control
[14] = PANC-1, c = 10 μM, 48 h, % of proliferation of nontreated control
[15] = SAOS-2, c = 10 μM, 48 h, % of proliferation of nontreated control
[16] = MRC5, c = 10 μM, 48 h, % of proliferation of nontreated control
[17] = MOLT-4, c = 10 μM, 48 h, % of proliferation of nontreated control
[18] = MCF7, c = 10 μM, 48 h, % of proliferation of nontreated control
[19] = 10 μM single dose, 48-h interval, all tested cell lines

T1 sequence (P22303 32-614): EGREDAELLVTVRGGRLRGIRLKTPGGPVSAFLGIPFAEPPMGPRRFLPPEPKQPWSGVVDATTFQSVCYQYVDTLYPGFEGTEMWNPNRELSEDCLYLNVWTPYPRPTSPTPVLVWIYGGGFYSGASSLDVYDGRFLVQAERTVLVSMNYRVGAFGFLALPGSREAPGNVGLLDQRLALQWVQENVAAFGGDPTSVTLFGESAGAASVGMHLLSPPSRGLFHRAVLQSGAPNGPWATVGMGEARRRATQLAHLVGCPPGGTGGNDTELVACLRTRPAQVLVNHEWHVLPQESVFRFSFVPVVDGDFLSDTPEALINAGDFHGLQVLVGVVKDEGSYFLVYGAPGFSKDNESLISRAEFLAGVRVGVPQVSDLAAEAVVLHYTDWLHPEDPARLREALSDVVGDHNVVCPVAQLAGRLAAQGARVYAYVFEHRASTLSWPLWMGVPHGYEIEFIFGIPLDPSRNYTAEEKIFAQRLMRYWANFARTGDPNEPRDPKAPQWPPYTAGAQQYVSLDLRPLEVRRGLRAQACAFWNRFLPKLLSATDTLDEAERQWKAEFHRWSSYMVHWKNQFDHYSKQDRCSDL
T2 sequence (P06276 29-602): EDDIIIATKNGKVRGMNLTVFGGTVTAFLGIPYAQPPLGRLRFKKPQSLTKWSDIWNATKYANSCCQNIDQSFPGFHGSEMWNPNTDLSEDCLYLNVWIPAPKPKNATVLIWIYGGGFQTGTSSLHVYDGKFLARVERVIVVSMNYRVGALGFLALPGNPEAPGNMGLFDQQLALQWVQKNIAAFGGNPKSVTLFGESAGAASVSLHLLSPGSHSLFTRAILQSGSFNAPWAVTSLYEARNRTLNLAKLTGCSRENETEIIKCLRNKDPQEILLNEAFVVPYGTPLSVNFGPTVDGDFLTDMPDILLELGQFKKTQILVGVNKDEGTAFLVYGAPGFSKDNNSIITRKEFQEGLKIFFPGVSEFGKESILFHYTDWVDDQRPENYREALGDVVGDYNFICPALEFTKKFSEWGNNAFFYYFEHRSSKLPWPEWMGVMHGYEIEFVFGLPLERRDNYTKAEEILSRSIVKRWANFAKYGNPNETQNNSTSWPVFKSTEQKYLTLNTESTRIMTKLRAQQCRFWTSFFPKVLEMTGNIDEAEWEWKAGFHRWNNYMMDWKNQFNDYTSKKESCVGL

| Structure (SMILES) | pIC50 (hAChE) | pIC50 (hBChE) | activity at 10 µM [1] | activity at 10 µM ([2]; A2780, 48 h) | activity at 10 µM (A549 (lung carcinoma); A549, 48 h) | activity at 10 µM ([3]; HT-29, 48 h) | activity at 10 µM ([4]; PANC-1, 48 h) | activity at 10 µM [5] | activity at 10 µM (SAOS-2 (osteosarcoma); SAOS-2, 48 h) | activity at 10 µM ([6]; MRC5, 48 h) | activity at 10 µM ([7]; MOLT-4, 48 h) | activity at 10 µM ([8]; MCF7, 48 h) | activity at 10 µM ([9]; 48 h) | activity at 10 µM [1, 10] | activity at 10 µM [2, 11] | activity at 10 µM (A549 (lung carcinoma); [12]) | activity at 10 µM [3, 13] | activity at 10 µM [4, 14] | activity at 10 µM [5, 10] | activity at 10 µM (SAOS-2 (osteosarcoma); [15]) | further results |
| --- | --- | --- | --- | --- | --- | --- | --- | --- | --- | --- | --- | --- | --- | --- | --- | --- | --- | --- | --- | --- | --- |
| CCO[C@H]1c2cc(OC)c(OC)cc2[C@@]23CC[C@H](OC)C[C@@H]2N1CC3 [Compound 4, 6-O-ethylzephyranine E] | < 4.00 | < 4.00 | 109% | 85% | 100% | 91% | 88% | 90% | 98% | 99% | 101% | 96% | > 50% |  |  |  |  |  |  |  |  |
| CCO[C@H]1c2cc(OC)c(OC)c(O)c2[C@@]23CC[C@H](OC)C[C@@H]2N1CC3 [Compound 3, 6-O-ethylzephyranine F] | < 4.00 | < 4.00 | 108% | 110% | 103% | 103% | 101% | 108% | 99% | 104% | 101% | 97% | > 50% |  |  |  |  |  |  |  |  |
| COc1cc2c(cc1OC)[C@@]13C=C[C@@H](OC)C[C@@H]1N(C2)C[C@@H]3O [Compound 1, zephycitrine] | < 4.00 | < 4.00 |  |  |  |  |  |  |  |  |  |  |  | 97% | 98% | 100% | 101% | 102% | 111% | 101% | activity at 10 µM [6, 16]: 107%; activity at 10 µM [7, 17]: 99%; activity at 10 µM [8, 18]: 106%; activity at 10 µM [9, 19]: > 50% |
| COc1cc2c(c(O)c1OC)[C@@]13CC[C@H](O)C[C@@H]1N(CC3)C2O (stereo partly drawn) [Compound 8, zephyranine C] | < 4.00 | < 4.00 | 117% | 105% | 117% | 121% | 110% | 109% | 111% | 100% | 98% | 112% | > 50% |  |  |  |  |  |  |  |  |
| COc1ccc2c3c1O[C@H]1C[C@@H](O)CC[C@@]31CCNC2 [Compound 7, norlycoramine] | < 4.00 and 3.81 | < 4.00 | 98% | 97% | 103% | 100% | 103% | 103% | 97% | 98% | 99% | 97% | > 50% |  |  |  |  |  |  |  |  |
| COc1cc2c(cc1OC)[C@@H]1[C@H](O)[C@@H](OC)[C@H](O)C3=CCN(C2)[C@H]31 [Compound 6, narcissidine] | < 4.00 | < 4.00 |  |  |  |  |  |  |  |  |  |  |  | 123% | 101% | 113% | 108% | 102% | 111% | 101% | activity at 10 µM [6, 16]: 101%; activity at 10 µM [7, 17]: 101%; activity at 10 µM [8, 18]: 103%; activity at 10 µM [9, 19]: > 50% |
